These results are taken from ChEMBL document CHEMBL4425085, “Challenges and Perspectives on the Development of Small-Molecule EGFR Inhibitors against T790M-Mediated Resistance in Non-Small-Cell Lung Cancer” (J Med Chem, 2016).

Molecules are shown by their SMILES.

The subject of test [1] is A-431. Put plainly: Antiproliferative activity against human A431 cells expressing wild type EGFR by MTS assay. Type of test: cell-based. (In general: Tetrazolium assays rely on reduction of a dye to a coloured formazan, in cell work by metabolically active cells.)
In test [2] the target is Epidermal growth factor receptor (Homo sapiens, UniProt P00533). Put plainly: Binding affinity to wild type partial length human EGFR expressed in bacterial system by KINOMEscan assay.
Chain of Epidermal growth factor receptor (Homo sapiens, UniProt P00533) (P00533 whole entry): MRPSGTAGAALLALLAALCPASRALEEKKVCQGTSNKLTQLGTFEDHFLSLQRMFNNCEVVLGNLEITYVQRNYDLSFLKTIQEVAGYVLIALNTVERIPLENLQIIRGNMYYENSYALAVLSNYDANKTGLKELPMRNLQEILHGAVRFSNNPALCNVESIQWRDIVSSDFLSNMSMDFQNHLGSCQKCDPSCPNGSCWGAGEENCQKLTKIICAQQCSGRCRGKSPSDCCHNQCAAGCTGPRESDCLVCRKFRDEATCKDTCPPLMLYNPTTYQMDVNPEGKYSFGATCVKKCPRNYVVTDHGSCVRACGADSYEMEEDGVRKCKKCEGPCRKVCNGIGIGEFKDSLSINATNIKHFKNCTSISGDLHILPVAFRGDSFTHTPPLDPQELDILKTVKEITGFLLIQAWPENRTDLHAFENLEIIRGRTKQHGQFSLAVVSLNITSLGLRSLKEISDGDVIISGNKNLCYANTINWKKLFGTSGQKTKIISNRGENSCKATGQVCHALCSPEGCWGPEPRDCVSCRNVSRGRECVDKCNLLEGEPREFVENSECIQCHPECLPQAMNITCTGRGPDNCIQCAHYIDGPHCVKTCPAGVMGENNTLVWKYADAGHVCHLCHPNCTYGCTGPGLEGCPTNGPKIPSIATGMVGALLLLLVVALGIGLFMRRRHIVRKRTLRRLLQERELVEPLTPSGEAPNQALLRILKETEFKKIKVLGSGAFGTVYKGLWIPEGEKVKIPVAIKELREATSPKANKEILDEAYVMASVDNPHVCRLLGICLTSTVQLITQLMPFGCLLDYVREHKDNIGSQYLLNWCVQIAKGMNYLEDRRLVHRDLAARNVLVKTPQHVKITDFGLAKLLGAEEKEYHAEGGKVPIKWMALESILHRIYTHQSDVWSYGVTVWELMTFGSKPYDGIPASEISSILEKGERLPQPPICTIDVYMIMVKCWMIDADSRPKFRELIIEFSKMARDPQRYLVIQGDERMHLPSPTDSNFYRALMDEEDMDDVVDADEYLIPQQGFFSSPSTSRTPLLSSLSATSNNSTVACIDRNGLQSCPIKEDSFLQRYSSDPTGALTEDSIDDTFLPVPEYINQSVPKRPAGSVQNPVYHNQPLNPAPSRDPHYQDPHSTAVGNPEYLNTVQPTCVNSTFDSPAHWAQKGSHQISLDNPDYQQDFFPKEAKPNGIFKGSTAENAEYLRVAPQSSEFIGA
Test [3] deals with NCI-H1975. Put plainly: Antiproliferative activity against human NCI-H1975 cells expressing EGFR L858R/T790M double mutant by MTS assay. Type of test: functional, cell-based.
Test [4] has as its target Epidermal growth factor receptor (Homo sapiens, UniProt P00533, L858R/T790M). The experiment in a line: Binding affinity to partial length human EGFR L858R/T790M double mutant expressed in mammalian system by KINOMEscan assay.
For test [5], the species on record is Homo sapiens. The experiment in a line: Selectivity ratio of Kd for wild type partial length human EGFR to Kd for partial length human EGFR L858R/T790M double mutant.
A short description of test [6]: Selectivity ratio of IC50 for human A431 cells expressing wild type EGFR to IC50 for human NCI-H1975 cells expressing EGFR L858R/T790M double mutant.
Test [7] relates to BaF3. The experiment in a line: Antiproliferative activity against mouse BA/F3 cells expressing wild type EGFR after 72 hrs by MTS assay. It counts as cell-based. The settings on record: BaF3, 72 h.
In test [8] the test system is BaF3. Put plainly: Antiproliferative activity against gefitinib sensitive mouse BA/F3 cells expressing EGFR exon 19 del E746_A750 activating mutant after 72 hrs by MTS assay. The following applies: BaF3, 72 h. It counts as functional, cell-based.
For test [9], the system named is BaF3. The experiment in a line: Potency index, ratio of gefitinib IC50 to compound IC50 for gefitinib resistant mouse BA/F3 cells expressing EGFR L858R/T790M double mutant. Type of test: functional.
The test system of test [10] is NCI-H1975. The experiment in a line: Antiproliferative activity against gefitinib resistant human NCI-H1975 cells expressing EGFR L858R/T790M double mutant after 72 hrs by MTS assay. Type of test: functional, cell-based. The following applies: NCI-H1975, 72 h.
The subject of test [11] is BaF3. The experiment in a line: Selectivity ratio of IC50 for gefitinib sensitive mouse BA/F3 cells expressing wild type EGFR to IC50 for gefitinib resistant mouse BA/F3 cells expressing EGFR L858R/T790M double mutant.
Test [12] deals with NCI-H1975. Put plainly: Potency index, ratio of gefitinib IC50 to compound IC50 for gefitinib resistant human NCI-H1975 cells expressing EGFR L858R/T790M double mutant. Type of test: functional.
Test [13] relates to BaF3. Put plainly: Antiproliferative activity against gefitinib resistant mouse BA/F3 cells expressing EGFR L858R/T790M double mutant after 72 hrs by MTS assay. The settings on record: BaF3, 72 h. It counts as functional, cell-based.
Test [14] deals with PC-9. The experiment in a line: Antiproliferative activity against gefitinib resistant human PC9 cells expressing EGFR del E746_A750/T790M mutant after 72 hrs by MTS assay. It counts as functional, cell-based. The settings on record: PC-9, 72 h.
The subject of test [15] is NCI-H1975. Put plainly: Antiproliferative activity against human NCI-H1975 cells expressing EGFR L858R/T790M double mutant assessed as decrease in cell viability after 48 hrs by WST assay. It counts as functional, cell-based. The settings on record: NCI-H1975, 48 h.

Chain of Epidermal growth factor receptor (Homo sapiens, UniProt P00533, L858R/T790M) (P00533 25-1210 T790M/L858R limits assumed): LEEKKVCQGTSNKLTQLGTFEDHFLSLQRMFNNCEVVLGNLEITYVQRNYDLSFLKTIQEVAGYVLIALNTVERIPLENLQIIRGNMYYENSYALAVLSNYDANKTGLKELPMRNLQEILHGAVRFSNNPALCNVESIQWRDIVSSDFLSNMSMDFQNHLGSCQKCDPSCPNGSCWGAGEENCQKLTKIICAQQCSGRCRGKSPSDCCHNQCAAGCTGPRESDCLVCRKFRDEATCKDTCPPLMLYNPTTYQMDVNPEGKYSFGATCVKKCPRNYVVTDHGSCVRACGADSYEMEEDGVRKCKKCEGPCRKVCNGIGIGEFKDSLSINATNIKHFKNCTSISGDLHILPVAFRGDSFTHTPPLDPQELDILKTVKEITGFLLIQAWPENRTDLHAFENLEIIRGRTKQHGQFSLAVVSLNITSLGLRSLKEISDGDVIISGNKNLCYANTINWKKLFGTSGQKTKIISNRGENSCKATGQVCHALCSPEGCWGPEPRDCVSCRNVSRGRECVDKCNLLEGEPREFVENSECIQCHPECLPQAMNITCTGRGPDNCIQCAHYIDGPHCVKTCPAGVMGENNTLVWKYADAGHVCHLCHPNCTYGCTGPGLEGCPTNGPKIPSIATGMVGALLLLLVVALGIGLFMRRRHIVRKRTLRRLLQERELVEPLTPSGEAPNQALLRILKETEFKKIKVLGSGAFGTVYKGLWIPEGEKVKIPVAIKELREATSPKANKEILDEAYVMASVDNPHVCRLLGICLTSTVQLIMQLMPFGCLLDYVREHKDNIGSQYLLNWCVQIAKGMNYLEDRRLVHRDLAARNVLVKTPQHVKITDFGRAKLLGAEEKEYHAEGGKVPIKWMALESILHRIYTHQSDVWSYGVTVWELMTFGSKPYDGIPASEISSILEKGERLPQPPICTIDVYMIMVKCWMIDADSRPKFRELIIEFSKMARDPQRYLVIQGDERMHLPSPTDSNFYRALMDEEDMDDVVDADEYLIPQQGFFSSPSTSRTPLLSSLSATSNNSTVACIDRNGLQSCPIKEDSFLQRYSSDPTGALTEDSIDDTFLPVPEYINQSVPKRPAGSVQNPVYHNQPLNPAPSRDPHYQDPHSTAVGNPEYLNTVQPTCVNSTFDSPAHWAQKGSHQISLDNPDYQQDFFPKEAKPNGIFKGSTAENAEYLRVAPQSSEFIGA

The term IC50 denotes the concentration that inhibits the measured activity by half. For orientation: Kd means the constant that tells how readily two partners part at equilibrium. A low value points to higher affinity. Turning to `C=CC(=O)Nc1cccc(-n2c3nc(Nc4ccc(N5CCN(C)CC5)cc4OC)ncc3c(=O)n3ccnc23)c1`, the results for the IC50 in [1] and in [3] were 2980 nM and 143 nM, respectively. Besides, the Kd was 140 nM in test [2] and 1.8 nM in test [4]. The Selectivity ratio in test [5] worked out at 78. In addition, in test [6], the “Ratio IC50” value stood at 21.

In the case of `C=CC(=O)Nc1cccc(-n2c3nc(Nc4ccc(N5CCOCC5)cc4OC)ncc3c(=O)n3ccnc23)c1`, the results for the IC50 in [1] and in test [3] were over 30000 nM and 476 nM, respectively. The Kd in test [2] was determined as 950 nM; in [4], 6.1 nM. Also, the Selectivity ratio in [5] turned out to be 156. Moreover, the “Ratio IC50” value in [6] was 63.

Consider `C=CC(=O)Nc1cccc(Sc2nc(Nc3ccc(N4CCN(C)CC4)cc3)ncc2Cl)c1`, for which the IC50 is 32 nM in test [7], 2 nM in [8], 9 nM in test [10] and 9 nM in [13]. Besides, the “Ratio IC50” value in [9] is 30 - 100; in test [11], 4; in test [12], 30 - 100.

With `C=CC(=O)Nc1cccc(Oc2nc(Nc3ccc(N4CCN(C)CC4)cc3OC)ncc2Cl)c1`, the IC50 amounted to 1040 nM in [1]; 113 nM in test [7]; 3 nM in test [8]; 55 nM in [3]; 47 nM in test [10]; 14 nM in test [14]. This molecule also gave an IC50 in test [13] of 8 nM.

As to `CN(C)C/C=C/C(=O)Nc1cc2c(Nc3ccc(F)c(Cl)c3)ncnc2cc1O[C@H]1CCOC1` [AFATINIB], the IC50 in [15] was determined as 900 nM.

As to `C=CC(=O)Nc1cccc(Oc2nc(Nc3ccc(N4CCN(C)CC4)cc3)ncc2Cl)c1`, the 50% inhibitory concentration (IC50) in test [7] worked out at 24 nM; in test [8], 2 nM; in test [10] it was 29 nM; in test [13], 5 nM. Further, the “Ratio IC50” value is 30 - 100 in test [9], 5 in [11] and 30 - 100 in test [12].

For the molecule `C=CC(=O)Nc1cccc(-n2c3nc(Nc4ccc(N5CCN(NC)CC5)cc4OC)ncc3c(=O)n3ccnc23)c1`, the figures for the IC50 in test [1] and in test [3] were 14500 nM and 86 nM, respectively. Also, the values for the Kd in test [2] and in test [4] were 310 nM and 2.6 nM, respectively. Also, the Selectivity ratio in test [5] came out at 119. Further, the “Ratio IC50” value in test [6] is 169.

As for `C=CC(=O)Nc1cccc(N2C3=NCCCCN3C(=O)c3cnc(Nc4ccc(N5CCN(C)CC5)cc4OC)nc32)c1`, the IC50 in test [1] was 1540 nM; in test [3], 648 nM. The Kd came to 17 nM in [2] and 0.88 nM in [4]. Also, in [5], the Selectivity ratio was 20. Also, the “Ratio IC50” value in test [6] is 3.

Consider `C=CC(=O)Nc1cccc(-n2c3nc(Nc4ccc(N5CCN(C)CC5)cc4OC)ncc3c(=O)n3c4ccccc4nc23)c1`, for which the concentration for half-maximal inhibition (IC50) in test [1] is 3570 nM; in [3], 307 nM. For the same molecule, the Kd in test [2] was determined as 110 nM; in [4], 1.1 nM. The Selectivity ratio in test [5] worked out at 100. In addition, in test [6], the “Ratio IC50” value stood at 12.

Consider `C=CC(=O)Nc1cccc(-n2c3nc(Nc4ccc(N5CCN(C)CC5)cc4OCC)ncc3c(=O)n3ccnc23)c1`, for which the results for the IC50 in [1] and in test [3] were 5250 nM and 396 nM, respectively. The values for the Kd in test [2] and in [4] were 420 nM and 3.1 nM, respectively. Also, the Selectivity ratio in test [5] stood at 136. The “Ratio IC50” value in [6] stood at 13.
